Results from US5155209A, “R-(+) enantiomeric form of 7-(2, 3-epoxypropoxy) actinomycin D” (priority 1991, dated 1992).

Experiments:
P388/ADR [1] = test: Inhibition of growth in vitro of P388/ADR cells; assay type: cell-based, mouse; settings: actively growing tumor cells
Method: (§1) The analogues are assayed for in vitro growth inhibitory activity against several experimental tumor lines including human and murine leukemia, mouse melanoma, and human lymphoblastic leukemia.

B16 = test: Inhibition of growth in vitro of B16 cells; assay type: cell-based, mouse; settings: actively growing tumor cells
Method: as §1

P388/ADR [2] = test: Antitumor activity against ip implanted P388/ADR in CDF1 mice; assay type: in vivo; parameters: OD (optimal dose of drugs): unit not given here; settings: for % ILS (percent increase in median life time vs controls) / (surv) number of 60 days survivors/number of animals tested / MST (median survival time): ip qd 1-9, at optimal dose; for OD (optimal dose of drugs): treated ip qd 1-9
Method: ^e Optimal dose of drugs.
^ f Median survival time of tumor bearing mice.
^g Percent increase in median life time in days of drugtreated dying
animals vs those of controls; (survivors), number of 60 days
survivors/number of animals tested in the group.
In order to examine a broader spectrum of activity, these optical isomers are tested in two other mouse leukemia cell lines in vivo. One cell line, P388/ADR, is a derivative of the above P388/S made resistant to intercalating agents like […].

[3] = system: DNA synthesis in L1210 cells; test: Inhibition of DNA synthesis in L1210 ([methyl-14C]thymidine incorporation); assay type: cell-based, Murine; settings: [methyl-14C]thymidine incorporation into DNA; read-out: inhibition of synthesis of nucleic acids in L1210 IC50 DNA
Method: (§2) ^a Drug concentration (micromolor) for 50% reduction of incorporation
(§3) of [methyl^14 C]thymidine into DNA^b and [5^3 H] uridine into
(§4) RNA^c from the rate of incorporation of the same radionucleotides in
(§5) nondrug treated L1210 cells growing actively in vitro.
(§6) Inhibition of nucleic acid synthesis in L1210 lymphoid leukemia cells by (±)-EPA and it optical isomers are assayed. […] To achieve this, a digestion of the nucleic acid pellet with DNase-free RNase enzyme, prior to final pelleting of the DNA precipitate is made to ensure that no more than ±8% contamination from […] into DNA takes place, and for this the necessary correction is made in the data reported in Table V.

[4] = system: RNA synthesis in L1210 cells; test: Inhibition of RNA synthesis in L1210 ([5-3H]uridine incorporation); assay type: cell-based, Murine; settings: [5-3H]uridine incorporation into RNA; read-out: inhibition of synthesis of nucleic acids in L1210 IC50 RNA
Method: as §2, §3, §4, §5, §6

L1210 cells = test: Inhibition of growth of L1210 cells in culture; assay type: cell-based, Murine
Method: as §1

leukemia L1210 = test: Activity in mice bearing leukemia L1210; assay type: in vivo; settings: L1210 ip in CDF1 mouse; for OD (optimal dose): ip days 1, 5, 9; for % ILS (percent increase in median life span) / (surv) number of over 60 days survivors/number of animals tested: ip days 1, 5, 9, at optimal dose
Excerpt: ^e OD, optimal dose of drugs in milligrams/killograms per injection,
administered ip on days 1, 5, and 9, following ip inoculation with
^f % ILS, percent increase in median life span in days, of the
tumorbearing drugtreated dying animals when compared with similar tumor
bearing mice but not treated with drugs. (surv), number of over 60 days
survivors/number of animals tested.

B16 melanoma [5] = test: B16 melanoma implanted sc, drug iv (sc-iv) in BDF1 mice; assay type: in vivo; settings: B16 sc implanted; for % ILS / (surv) sixty day survivors/number of mice treated / MST (median survival time): drug iv day 1; for OD (optimal dose): drug iv day 1, 0.1 mL vehicle
Method: (§7) Subcutaneously implanted B16 melanoma in BDF1 mice is a slow growing tumor, but its rate of growth becomes faster when it is implanted ip. […] This is not consistent with data in other tumors; however, in this connection it should be pointed out that the combined effects of drugs (or enantiomers in this case) can be manifested in several ways, i.e., they can be synergistic, additive, or subtractive.
(§8) 0.2 ml of brei (tumor weight/Hank's balanced salt solution, (1:5) of B16
(§9) implanted sc or ip into groups of nine BDF1 mice on day 0. Drugs
(§10) administered iv on day 1 or ip on days 1, 5, and 9, following tumor
(§11) administered ip on days 1, 5, and 9. OD, optimal dose in
(§12) milligrams/milliliter of vehicle, and administered iv or ip in 0.1 mL of
(§13) vehicle (5% v/v Me2 SOsaline). MST, median survival times in days of
(§14) tumor bearing and nondrug treated (control) or drugtreated mice. % ILS,
(§15) percent increase in life span of drug treated groups over the control
(§16) group of test animals, excluding survivors. (surv), number of sixty day
(§17) survivors/number of mice treated with drug.

B16 melanoma [6] = test: B16 melanoma implanted ip, drug ip (ip-ip) in BDF1 mice; assay type: in vivo; settings: B16 ip implanted; for % ILS / (surv) sixty day survivors/number of mice treated / MST (median survival time): drug ip days 1, 5, 9; for OD (optimal dose): drug ip days 1, 5, 9, 0.1 mL vehicle
Method: as §7, §8, §9, §10, §11, §12, §13, §14, §15, §16, §17

C26 colon carcinoma = C26 colon carcinoma implanted in CDF1 mice, drug ip; assay type: in vivo; settings: for % ILS / (surv) sixty day survivors/number of mice treated / MST: drug ip days 1, 5, 9; for OD (optimal dose): drug ip days 1, 5, 9, 0.1 mL vehicle
Method: implantation. Primary colon C26 carcinoma (tripan blue excluding, 2.5
× 10^5 cells/mouse) implanted in CDF1 mice on day 0; drug
as §11, §12, §13, §14, §15, §16, §17

CCRF-CEM [7] = settings: cited from earlier work
[8] = system: P388/S lymphocytic leukemia; settings: cited from earlier work
CCRF-CEM [9] = test: In vitro growth inhibition of CCRF-CEM human lymphoblastic leukemia cells; assay type: cell-based; settings: purer (90%) form of isomers
Method: as §1

Row | Structure (SMILES) | inhibition of growth ID50 P388/ADR (P388/ADR [1]) [nM] | inhibition of growth ID50 B16 (B16) [nM] | % ILS (percent increase in median life time vs controls) (P388/ADR [2]) [%] | (surv) number of 60 days survivors/number of animals tested (P388/ADR [2]) | MST (median survival time) (P388/ADR [2]) [days] | OD (optimal dose of drugs) (P388/ADR [2]) | inhibition of growth of L1210 cells in culture; ID50 (L1210 cells) [nM] | OD (optimal dose) (leukemia L1210) | % ILS (percent increase in median life span) (leukemia L1210) [%] | (surv) number of over 60 days survivors/number of animals tested (leukemia L1210) | % ILS (B16 melanoma [5]) [%] | (surv) sixty day survivors/number of mice treated (B16 melanoma [5]) | MST (median survival time) (B16 melanoma [5]) [days] | OD (optimal dose) (B16 melanoma [5]) | % ILS (B16 melanoma [6]) [%] | OD (optimal dose) (B16 melanoma [6]) | % ILS (C26 colon carcinoma) [%] | (surv) sixty day survivors/number of mice treated (C26 colon carcinoma) | MST (C26 colon carcinoma) [days] | OD (optimal dose) (C26 colon carcinoma) | further results
1 | Cc1c2oc3c(C)c(OCC4CO4)cc(C(=O)NC4C(=O)NC(C(C)C)C(=O)N5CCCC5C(=O)N(C)CC(=O)N(C)C(C(C)C)C(=O)OC4C)c3nc-2c(C(=O)NC2C(=O)NC(C(C)C)C(=O)N3CCCC3C(=O)N(C)CC(=O)N(C)C(C(C)C)C(=O)OC2C)c(N)c1=O (racemic) [3b[(±)-EPA]] [7-(2,3-epoxypropoxy) actinomycin D] | 80 ± 11 | 2.5 ± 0.6 | 344 | 4/10 | 40 | 0.65 | 28.7 ± 8.7 | 0.05 milligrams/killograms per inje | 186 | 2/9 | 64 | 0/9 | 54.0 | 1.0 milligrams/milliliter of vehic | 105 | 0.30 milligrams/milliliter of vehic | 64 | 0/10 | 36.0 | 0.60 milligrams/milliliter of vehic | % ILS (percent increase in median life time vs controls) (P388/ADR [2]; listed as racemic EPA): 344%; (surv) number of 60 days survivors/number of animals tested (P388/ADR [2]; listed as racemic EPA): four out of 10; IC50 [3]: 80 ± 19 nM; IC50 [4]: 24 ± 4 nM; (surv) sixty day survivors/number of mice treated (B16 melanoma [6]): 2/9; antitumor activity in CCRF-CEM cells in vitro (CCRF-CEM [7]): high antitumor activity; antitumor activity in P388/S mouse leukemia in vivo [8]: high antitumor activity
2 | Cc1c2oc3c(C)c(OCC4CO4)cc(C(=O)NC4C(=O)NC(C(C)C)C(=O)N5CCCC5C(=O)N(C)CC(=O)N(C)C(C(C)C)C(=O)OC4C)c3nc-2c(C(=O)NC2C(=O)NC(C(C)C)C(=O)N3CCCC3C(=O)N(C)CC(=O)N(C)C(C(C)C)C(=O)OC2C)c(N)c1=O [(R)-(+)-EPA, 7-(2,3-epoxypropoxy) actinomycin D] | 40 ± 12 | 2.0 ± 0.4 | 400 | 4/10 | 45 | 0.30 | 23.1 ± 7.7 | 0.05 milligrams/killograms per inje | 199 | 3/9 | 70 | 1/9 | 56.0 | 1.0 milligrams/milliliter of vehic | 105 | 0.30 milligrams/milliliter of vehic | 89 | 2/10 | 41.5 | 0.60 milligrams/milliliter of vehic | (surv) sixty day survivors/number of mice treated (B16 melanoma [6]): 2/9; MST (median survival time) (B16 melanoma [6]): 39.0 days; 50% growth inhibitory dose (ID50) (CCRF-CEM [9]; listed as R-(+) isomer): 2.0 nM
3 | Cc1c2oc3c(C)c(OCC4CO4)cc(C(=O)NC4C(=O)NC(C(C)C)C(=O)N5CCCC5C(=O)N(C)CC(=O)N(C)C(C(C)C)C(=O)OC4C)c3nc-2c(C(=O)NC2C(=O)NC(C(C)C)C(=O)N3CCCC3C(=O)N(C)CC(=O)N(C)C(C(C)C)C(=O)OC2C)c(N)c1=O [(S)-(-)-EPA, 7-(2,3-epoxypropoxy) actinomycin D] | 135 ± 12 | 3.5 ± 1.0 | 377 | 5/10 | 43 | 0.80 | 56.8 ± 8.8 | 0.05 milligrams/killograms per inje | 143 | 1/9 | 60 |  | 53.0 | 1.0 milligrams/milliliter of vehic | 74 | 0.30 milligrams/milliliter of vehic | 64 | 1/10 | 36.0 | 0.90 milligrams/milliliter of vehic | MST (median survival time) (B16 melanoma [6]): 33.0 days; 50% growth inhibitory dose (ID50) (CCRF-CEM [9]; listed as S-(-) isomer): 3.5 nM
4 | COc1cccc2c1C(=O)c1c(O)c3c(c(O)c1C2=O)C[C@@](O)(C(=O)CO)C[C@@H]3O[C@H]1C[C@H](N)[C@H](O)[C@H](C)O1 [adriamycin, reference compound] |  |  |  |  |  |  |  |  |  |  | 79 | 1/9 | 59.0 | 5.0 milligrams/milliliter of vehic | 224 | 5.0 milligrams/milliliter of vehic | 118 | 3/10 | 48.0 | 2.50 milligrams/milliliter of vehic | (surv) sixty day survivors/number of mice treated (B16 melanoma [6]): 7/9; MST (median survival time) (B16 melanoma [6]): 60.0 days
5 | CO[C@@]12[C@H](COC(N)=O)C3=C(C(=O)C(C)=C(N)C3=O)N1C[C@@H]1N[C@@H]12 [mitomycin, mitomycin C, reference compound] |  |  | 400 | 5/10 | 45 | 1.0 |  |  |  |  |  |  |  |  |  |  |  |  |  |  | 
